In PubChem BioAssay AID1645861 (Buhrlage Lab, Dana-Farber Cancer Institute and Novartis …, 2021):
Activity calls are given as the source filed them.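 The calls were made as follows: active = compounds whose peak USP7 inhibition across the dose series reached 30% or more; inactive = the rest.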

Molecular target: Ubiquitin carboxyl-terminal hydrolase 7 (Homo sapiens) (UniProt Q93009)
Assay: Biochemical concentration-response for ubiquitin-specific peptidase 7 DUB inhibitors, verifying primary hits (AID 1645861)
Settings: purified USP7, Ub-rhodamine cleavage fluorescence, 60 min

Ubiquitin carboxyl-terminal hydrolase 7 (Homo sapiens), sequence (Q93009 whole entry, looked up): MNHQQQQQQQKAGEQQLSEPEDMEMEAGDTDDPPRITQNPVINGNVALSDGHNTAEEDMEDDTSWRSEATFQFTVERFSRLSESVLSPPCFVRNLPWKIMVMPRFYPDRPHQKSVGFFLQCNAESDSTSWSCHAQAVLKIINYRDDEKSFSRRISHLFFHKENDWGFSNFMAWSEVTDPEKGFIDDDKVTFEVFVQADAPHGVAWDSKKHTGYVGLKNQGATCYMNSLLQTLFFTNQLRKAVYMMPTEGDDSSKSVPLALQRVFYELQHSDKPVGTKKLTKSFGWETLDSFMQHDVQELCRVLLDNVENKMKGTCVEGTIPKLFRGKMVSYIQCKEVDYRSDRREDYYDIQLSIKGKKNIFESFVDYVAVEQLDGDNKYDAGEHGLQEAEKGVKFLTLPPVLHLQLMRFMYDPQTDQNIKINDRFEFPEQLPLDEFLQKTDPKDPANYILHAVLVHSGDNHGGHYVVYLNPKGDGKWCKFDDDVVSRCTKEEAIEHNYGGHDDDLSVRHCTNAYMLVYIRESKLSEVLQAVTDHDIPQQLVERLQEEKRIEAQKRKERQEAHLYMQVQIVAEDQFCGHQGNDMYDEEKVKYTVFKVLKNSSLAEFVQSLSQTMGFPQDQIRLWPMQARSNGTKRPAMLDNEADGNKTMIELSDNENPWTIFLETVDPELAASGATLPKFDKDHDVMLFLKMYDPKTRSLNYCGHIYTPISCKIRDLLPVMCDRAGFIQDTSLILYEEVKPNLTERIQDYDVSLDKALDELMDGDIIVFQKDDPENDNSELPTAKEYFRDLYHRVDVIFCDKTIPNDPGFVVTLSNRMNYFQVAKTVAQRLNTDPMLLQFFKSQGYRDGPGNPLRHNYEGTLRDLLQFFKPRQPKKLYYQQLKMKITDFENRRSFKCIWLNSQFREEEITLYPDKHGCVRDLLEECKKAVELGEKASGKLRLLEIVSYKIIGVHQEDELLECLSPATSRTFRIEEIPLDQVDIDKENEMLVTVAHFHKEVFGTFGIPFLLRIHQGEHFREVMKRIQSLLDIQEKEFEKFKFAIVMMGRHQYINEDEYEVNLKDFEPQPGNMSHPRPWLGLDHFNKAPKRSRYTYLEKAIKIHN

SMILES	IC50
Cc1nc(SCC(=O)NC(C)c2ccccc2)c2oc3ccccc3c2n1 (stereo unspecified)	> 50 µM (inactive)
COc1cc(Cl)c(NC(=O)C2Cc3ccccc3N2C(=O)c2ccccc2)c(OC)c1 (stereo unspecified)	> 50 µM (inactive)
CCCCCCCCCC(CCCCCCCCCC(=O)O)O[C@H]1O[C@@H](COC(C)=O)[C@H](O)[C@@H](O)[C@H]1OC(=O)CC(=O)O (stereo partly specified)	> 50 µM (inactive)
O=C(Cn1c(=O)n(CC2CCC(C(=O)NCCc3ccccc3)CC2)c(=O)c2ccccc21)NCc1ccco1 (stereo unspecified)	> 50 µM (inactive)
N#Cc1cccc(NC(=O)COC(=O)c2n[nH]c3ccccc23)c1	> 50 µM (inactive)
Cn1nc(Cl)c(Cl)c1Oc1ccc(S(=O)(=O)Nc2ccc(Oc3ccc(C(F)(F)F)cn3)c(Cl)c2)cc1	46.4 µM
Cc1cc(NS(=O)(=O)c2ccc(NC(=O)c3ccc(N4CCCC4)c([N+](=O)[O-])c3)cc2)no1	> 50 µM (inactive)
CCN(CC)Cc1ccc(-c2nnc(-c3cnc4onc(C)c4c3)o2)o1	> 50 µM (inactive)
O=C1NC(=O)/C(=C/c2ccc(OC(=O)c3ccc(Cl)cc3Cl)cc2)N1	> 50 µM (inactive)
Cn1c(CCNC(=O)c2[nH]nc3c2CCc2ccccc2-3)nc2ccccc21	> 50 µM (inactive)
COC(=O)c1ccccc1NC(=O)Cn1c(=O)n(Cc2ccc(C(=O)NCc3ccco3)cc2)c(=O)c2ccccc21	> 50 µM (inactive)
COc1ccc(OCCn2c(C3CC(=O)N(c4cccc(C)c4)C3)nc3ccccc32)cc1 (stereo unspecified)	> 50 µM (inactive)
O=c1[nH]c(C2CCN(S(=O)(=O)c3ccc(S(=O)(=O)NC4CC4)cc3)CC2)nc2c1nnn2Cc1c(Cl)cccc1Cl	> 50 µM (inactive)
O=C(OC1CSc2nc3ccccc3n2C1)c1ccc([N+](=O)[O-])o1 (stereo unspecified)	> 50 µM (inactive)
COc1ccc(OC)c(NC(=O)c2sc(-c3ccccc3)nc2C)c1	> 50 µM (inactive)
CC(=O)N1CCc2cc(S(=O)(=O)NC(Cc3ccccc3)C(=O)Nc3cccc(Cl)c3C)ccc21 (stereo unspecified)	> 50 µM (inactive)
CCOC(=O)c1cc2c(ccn2-c2ccc(F)cc2)n1CC(=O)Nc1ccc2c(c1)OCCO2	> 50 µM (inactive)
Cc1cc(OCC(=O)Nc2ccccc2C(=O)Nc2ccccc2)ccc1Cl	> 50 µM (inactive)
CCOc1ccc2c(c1)c(=O)c(C(=O)c1ccccc1)cn2CC(=O)Nc1ccc(Cl)cc1	41.6 µM
COc1ccccc1N1CCN(C(=O)c2ccc3c(=O)n(CCc4ccccc4)c(=O)[nH]c3c2)CC1	> 50 µM (inactive)
O=C(NCC1(c2ccccc2)CCC1)c1nc2n(n1)-c1ccccc1S(=O)(=O)N2	> 50 µM (inactive)
Cc1cc(C)cc(NC(=O)Nc2ccccc2OCc2cc(=O)n3c(ncn3C(C)C)n2)c1	> 50 µM (inactive)

SMILES	IC50
O=C(Nc1ccccc1C(=O)O)c1ccc(CSCc2ccccc2)cc1	> 50 µM (inactive)
Cc1ccc(C)c(NC(=O)Cn2cc(C(=O)C3CC3)c3ccccc32)c1	40.6 µM
CC(C)(C)C(=O)[C@@H]1[C@@H](C(=O)c2ccc3c(c2)OCO3)[C@@]2(C(=O)Nc3ccccc32)[C@H]2c3ccccc3C=CN12	> 50 µM (inactive)
O=C(Nc1cccc(F)c1)Nc1cccc(-c2nnc(-c3ccccc3)o2)c1	> 50 µM (inactive)
Cc1nnc(NC(=O)C2CCN(c3ccc(S(N)(=O)=O)cc3[N+](=O)[O-])CC2)o1	49.4 µM
O=C1C(=O)N(c2nc3ccc(F)cc3s2)C(c2ccc(F)cc2)/C1=C(\O)c1ccc(F)cc1 (stereo unspecified)	30.6 µM
NC(=O)c1ccccc1NC(=O)COc1ccc2c(c1)oc(=O)c1ccccc12	> 50 µM (inactive)
O=C(Cn1c(-c2ccccc2)ncc(C(=O)NC2CC2)c1=O)Nc1ccccc1	> 50 µM (inactive)
CCOc1ccc(NC(=O)Cn2c(=O)n(CCCCCC(=O)NCc3ccc(F)cc3)c(=O)c3sccc32)cc1	> 50 µM (inactive)
COc1cc2c(=O)n(Cc3ccccc3)c(=O)n(CC(=O)N3CCCc4ccccc43)c2cc1OC	> 50 µM (inactive)
CSc1ccc(CNC(=O)Cn2nc(C)c3c(C)n(-c4ccccc4)nc3c2=O)cc1	45.6 µM
COc1ccc2cc(C(=O)N3CCC(C(C)C(=O)NCc4cccc(F)c4)CC3)[nH]c2c1 (stereo unspecified)	> 50 µM (inactive)
C/C=C/C=C/[C@@H]1Cc2cc(O)cc(O)c2O1	> 50 µM (inactive)
COc1cn(-c2ccc(F)cc2)nc1C(=O)Nc1ccc(Cl)cc1Cl	> 50 µM (inactive)
O=C(NCCc1nc2ccccc2n1Cc1ccccc1F)c1ccc(Cl)cc1	> 50 µM (inactive)
Cc1ccc2nc(CNc3ccc(F)cc3C)cc(=O)n2c1	> 50 µM (inactive)
O=C(Cn1c(=O)c2ccccc2n(CC(=O)Nc2ccc(Br)cc2)c1=O)NCc1ccco1	> 50 µM (inactive)
O=C(/C=C/c1c(F)cccc1Cl)N1CCc2ccccc2C1	> 50 µM (inactive)
O=S(=O)(Nc1ccc(Oc2ncnc3cc(Cl)ccc23)nc1)c1ccc(S(=O)(=O)c2ccccc2)s1	49.6 µM
Cc1ccc(CNC(=O)Cn2c(=O)n(CCCC(=O)NCc3ccc(F)cc3)c(=O)c3ccccc32)cc1	> 50 µM (inactive)
CC(C)c1ccc(NC(=O)COC(=O)c2ccc(NS(=O)(=O)c3ccc4c(c3)OCCO4)cc2)cc1	> 50 µM (inactive)
Cc1ccc(NC(=O)Cn2cncc(-c3nc(-c4ccccc4)cs3)c2=O)cc1F	> 50 µM (inactive)

SMILES	IC50
O=C(O)c1cccc(NC(=O)C(Sc2cccc(NC(=O)c3cccc(Cl)c3)c2)c2ccccc2)c1 (stereo unspecified)	45.8 µM
Cc1cccc(OCCn2c(CCNC(=O)C3CCCCC3)nc3ccccc32)c1	> 50 µM (inactive)
Cc1ccc(NC(=O)Nc2ccc(C)n(CC(=O)Nc3ccc(C)cc3C)c2=O)cc1	40.2 µM
O=c1[nH]c(C2CCN(S(=O)(=O)c3ccc(S(=O)(=O)NC4CCCCC4)cc3)CC2)nc2c1nnn2Cc1c(F)cccc1Cl	> 50 µM (inactive)
Cc1ccc(N2CC(c3nc4ccccc4n3CCOc3cccc(C)c3)CC2=O)cc1 (stereo unspecified)	42.7 µM
COc1ccc(-c2ccc3cc(C(=O)O)ccc3c2)cc1C12CC3CC(CC(C3)C1)C2	> 50 µM (inactive)
Cc1ccc(Cn2c(=O)c3ncccc3n(CC(=O)NCc3ccc(F)cc3)c2=O)cc1	> 50 µM (inactive)
COc1cccc2cc(C(=O)Nc3nc(-c4ccncc4)cs3)oc12	18.3 µM
COc1cc2c(cc1OC)-c1cc(Nc3ccc(Br)cc3)nc(=O)n1CC2	> 50 µM (inactive)
CN(C)[C@@H]1C(=O)C(C(N)=O)=C(O)[C@@]2(O)C(=O)C3=C(O)c4c(O)cccc4[C@@](C)(O)C3[C@H](O)[C@@H]12 (stereo partly specified)	6.37 µM
O=C1CC(c2nc3ccccc3n2CCOc2ccc(Cl)cc2)CN1c1ccccc1 (stereo unspecified)	> 50 µM (inactive)
CCOc1ccc(-c2noc(-c3nn(-c4cccc(OC)c4)ccc3=O)n2)cc1	> 50 µM (inactive)
CC(NC(=O)c1ccccc1)c1nc2ccccc2n1CC(=O)Nc1ccc(OC(F)(F)F)cc1 (stereo unspecified)	> 50 µM (inactive)
COc1cccc(NC(=O)Cn2c3ccccc3n3c(=O)cc(-c4ccccc4)nc23)c1	> 50 µM (inactive)
O=C1c2c(O)ccc(O)c2C2(Oc3cccc4cccc(c34)O2)C2OC12 (stereo unspecified)	> 50 µM (inactive)
CC1=C(C)C(N(c2ccccc2)c2ccccc2)N(CCC(C)C)C1=O (stereo unspecified)	> 50 µM (inactive)
O=C(CCn1c(=O)c2ccccc2n(Cc2ccc(F)cc2Cl)c1=O)NCc1ccco1	> 50 µM (inactive)
O=C1Cc2ccccc2C(=O)N1Cc1cccc(Cl)c1	> 50 µM (inactive)
COc1cccc(C(=O)Nc2ccc(SC(C)C(=O)Nc3ccc(C(N)=O)cc3)cc2)c1 (stereo unspecified)	> 50 µM (inactive)
O=C1c2c(O)cccc2C2(Oc3cccc4cccc(c34)O2)C2OC12 (stereo unspecified)	> 50 µM (inactive)
COc1ccc(NC(=O)Cn2cc(C(=O)c3ccc(C)cc3)c(=O)c3ccccc32)cc1	> 50 µM (inactive)
O=C(CCCn1c(=O)[nH]c2cc(Cl)ccc2c1=O)NCCCN1CCCC1=O	> 50 µM (inactive)

SMILES	IC50
COC(=O)c1ccc(N2CCN(C(C)=O)CC2)c(NC(=O)COc2ccc([N+](=O)[O-])cc2)c1	> 50 µM (inactive)
CCCCCCCc1cc(OC(=O)c2c(CCCCCCC)cc(O)cc2O[C@@H]2O[C@H](CO)[C@H](O)[C@H](O)[C@H]2O)cc(O)c1C(=O)O	21.4 µM
Cc1nn(-c2ccccc2)c2c1N=C1C(Cl)=CC(Cl)=CN1C21C(=O)Nc2ccccc21 (stereo unspecified)	17.4 µM
O=C(O)C1C(C(=O)Nc2ccccc2)C2(c3ccccc3)C(=O)C1(c1ccccc1)C(c1ccccc1)=C2c1ccccc1 (stereo unspecified)	15.8 µM
CC1(C)Cc2c(c(-c3ccco3)nc3sc4c(SCCCc5ccccc5)ncnc4c23)CO1	> 50 µM (inactive)
Nc1ccc(C(=O)OCC(=O)NC2CCCc3ccccc32)cc1[N+](=O)[O-] (stereo unspecified)	> 50 µM (inactive)
CCOC(=O)c1ccc(NC(=O)Cn2c(=O)n(CC(=O)NCc3ccco3)c(=O)c3ccccc32)cc1	> 50 µM (inactive)
O=C(CSc1nnc2n(-c3ccccc3)c(=O)c3ccccc3n12)c1ccc(F)cc1	> 50 µM (inactive)
CC1=C(Cn2c3cccc(=O)c-3nc3ccccc32)CCC(C)(C)C1	> 50 µM (inactive)
Cc1cccc(NC(=O)Nc2nnc(CC(=O)NCc3ccccc3)s2)c1	> 50 µM (inactive)
COc1ccc(Cl)cc1NC(=O)c1nc(-c2cn(-c3ccccc3)nn2)no1	> 50 µM (inactive)
Cc1ccc(Cl)cc1NC(=O)Cn1c(=O)n(CCC(=O)NCc2ccco2)c(=O)c2ccccc21	> 50 µM (inactive)
COc1ccc(NC(=O)Cn2cc(C(=O)c3ccccc3)c(=O)c3cc(Cl)ccc32)cc1OC	> 50 µM (inactive)
CCOC(=O)c1ccc(NC(=O)Cn2c(=O)n(-c3ccc(CC(=O)NCc4ccco4)cc3)c(=O)c3ccccc32)cc1	> 50 µM (inactive)
Oc1cccc2c(-c3ccc(O)c4c(O)cccc34)ccc(O)c12	> 50 µM (inactive)
Cc1ccc(NC(=O)Cn2cc(C(=O)c3ccccc3)c(=O)c3cc(C)ccc32)cc1	> 50 µM (inactive)
O=C(CSc1nc2cc(C(F)(F)F)ccc2s1)NCC(=O)c1ccccc1	35.8 µM
Cc1ccc(NC(=O)Cn2c(=O)n(CC(=O)NCc3ccco3)c(=O)c3ccccc32)cc1C	> 50 µM (inactive)
COc1cc(NC(=O)Cc2ccccc2)ccc1NC(=O)c1cc2ccccc2o1	> 50 µM (inactive)
Cc1cc(NC(=O)c2cc(-c3cccnc3)n[nH]2)ccc1Br	48.6 µM
